Reference: publication PMC8857812 (BMC Complementary Medicine and Therapies, 2022)

Columns and labels:
Format in all cases: in vitro ADME
CYP3A4 [1] = target: T1, CYP3A4 (Homo sapiens, UniProt P08684); assay: Time-dependent inhibition and inactivation kinetics of CYP3A4 in HLMs
T1 construct: tissue PrimeTox M10000.201800; host or cells: pooled human liver microsomes (50 donors)
Description: (§1) After the first incubation, an aliquot (20 μL) was transferred to another incubation tube, added probe substrates and start the reaction by an NADPH-generating system. After incubation for 0, 5, 10, 15, and 30 min, the corresponding metabolites were determined by HPLC-MS.
CYPs time-dependent inhibition: Kobs=KinactI/KI+I

CYP2D6 = target: T2, CYP2D6 (Homo sapiens, UniProt P10635); assay: CYP2D6 inhibition in HLMs, dextromethorphan O-demethylation probe reaction; conditions: HLM; even in 100 μM concentrations
T2 construct: Phenotyping experiments were conducted by probe reactions of eight HLMs CYPs; tissue PrimeTox M10000.201800; host or cells: pooled human liver microsomes (50 donors)
T2 sequence (P10635 whole entry): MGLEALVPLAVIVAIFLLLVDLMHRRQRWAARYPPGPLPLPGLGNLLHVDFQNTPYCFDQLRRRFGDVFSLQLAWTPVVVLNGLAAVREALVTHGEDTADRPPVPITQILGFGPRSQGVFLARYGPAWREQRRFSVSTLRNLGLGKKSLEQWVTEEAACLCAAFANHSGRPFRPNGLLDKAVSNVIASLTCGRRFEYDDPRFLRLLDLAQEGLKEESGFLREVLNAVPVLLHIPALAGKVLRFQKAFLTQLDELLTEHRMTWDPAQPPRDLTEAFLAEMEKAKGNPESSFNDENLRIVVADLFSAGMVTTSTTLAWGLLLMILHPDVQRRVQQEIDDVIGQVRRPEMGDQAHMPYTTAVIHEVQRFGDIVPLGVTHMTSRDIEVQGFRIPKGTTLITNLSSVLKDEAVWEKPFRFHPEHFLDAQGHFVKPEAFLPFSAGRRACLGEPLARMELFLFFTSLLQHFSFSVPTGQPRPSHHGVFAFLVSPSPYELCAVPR
Description: (§2) Eight positive controls were used for different CYPs: 10 μM furafylline for CYP1A2, 50 μM clomethiazole for CYP2E1, 50 μM tranylcypromine for CYP2C19, 1 μM ketoconazole for CYP3A4, 10 μM tranylcypromine for CYP2A6, 5 μM montelukast for CYP2C8, 10 μM sulfaphenazole for CYP2C9, and 10 μM quinidine for CYP2D6. […] The reaction was initiated by adding a newly prepared NADPH generating system, maintained at 37 °C for 30 min, and then terminated by the addition of acetonitrile. The incubation conditions were optimized to assure that the reaction was linear with time and protein concentration. Blank HLMs were incubated as Control. The supernatant was obtained after centrifugation at 14000 r/min, 15 min for LC-MS analysis.
(§3) The quantification for the corresponding metabolites was performed using a validated single LC/MS/MS run at an Ultimate 3000 HPLC system and a TSQ Quantis™ triple quadrupole mass spectrometer equipped with a heated electrospray ionization (ESI) source (Thermo Fisher, USA). The mobile phase was consisted of solvent A (0.01% acetic acid and 5 mmol/L ammonium acetate) and solvent B (methanol-acetonitrile,1:1, v/v) according to the following gradient: 0-0.5 min, B 2%; 0.5-4.0 min, B 2 to 45%; 4.0-6.5 min, B 45 to 60%; 6.5-6.8 min, B 60 to 80%; 6.8-7.2 min, B 80%; 7.2-7.5 min, B 80 to 2%; 7.5-10.0 min, B 2%. […]

CYP2A6 = target: T3, CYP2A6 (Homo sapiens, UniProt P11509); assay: CYP2A6 inhibition in HLMs, coumarin 7-hydroxylation probe reaction; conditions: HLM; even in 100 μM concentrations
T3 construct: tissue PrimeTox M10000.201800; host or cells: pooled human liver microsomes (50 donors)
T3 sequence (P11509 whole entry): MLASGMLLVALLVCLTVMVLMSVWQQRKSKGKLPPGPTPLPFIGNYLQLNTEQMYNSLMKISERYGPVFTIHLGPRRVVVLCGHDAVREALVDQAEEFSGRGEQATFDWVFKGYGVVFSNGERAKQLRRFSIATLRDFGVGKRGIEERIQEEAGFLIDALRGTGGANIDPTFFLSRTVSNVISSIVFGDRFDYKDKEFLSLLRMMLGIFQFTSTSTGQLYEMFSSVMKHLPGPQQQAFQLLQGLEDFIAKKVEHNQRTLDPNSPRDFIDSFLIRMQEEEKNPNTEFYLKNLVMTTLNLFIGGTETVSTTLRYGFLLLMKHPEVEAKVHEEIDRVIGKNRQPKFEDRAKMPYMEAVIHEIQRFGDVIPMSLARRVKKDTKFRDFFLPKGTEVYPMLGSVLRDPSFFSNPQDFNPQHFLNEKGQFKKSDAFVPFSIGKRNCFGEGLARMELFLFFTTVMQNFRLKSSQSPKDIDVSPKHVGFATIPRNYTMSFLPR
Description: as §2, §3

CYP2E1 [2] = target: T4, CYP2E1 (Homo sapiens, UniProt P05181); assay: Inhibition kinetics of CYP2E1 in HLMs (Lineweaver-Burk plots)
T4 construct: tissue PrimeTox M10000.201800; host or cells: pooled human liver microsomes (50 donors)
T4 sequence (P05181 whole entry): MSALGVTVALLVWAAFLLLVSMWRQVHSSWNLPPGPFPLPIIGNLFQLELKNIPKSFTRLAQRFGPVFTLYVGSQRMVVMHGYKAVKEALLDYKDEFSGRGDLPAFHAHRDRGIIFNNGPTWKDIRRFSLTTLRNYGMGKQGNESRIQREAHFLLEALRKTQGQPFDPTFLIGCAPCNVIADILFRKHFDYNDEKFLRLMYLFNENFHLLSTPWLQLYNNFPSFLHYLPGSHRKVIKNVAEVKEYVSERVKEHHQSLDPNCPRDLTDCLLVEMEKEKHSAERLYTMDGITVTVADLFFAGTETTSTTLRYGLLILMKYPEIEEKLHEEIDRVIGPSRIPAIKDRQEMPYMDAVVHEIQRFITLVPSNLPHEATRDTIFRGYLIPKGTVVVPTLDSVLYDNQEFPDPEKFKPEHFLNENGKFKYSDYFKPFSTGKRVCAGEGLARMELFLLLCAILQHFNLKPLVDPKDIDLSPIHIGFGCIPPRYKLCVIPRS
From the text: (§4) A one enzyme Michaelis Menten model with competitive substrate inhibition: V=VmaxS/Km1+I/KI+Sa
(§5) Michaelis-Menten model with uncompetitive substrate inhibition: V=VmaxS/Km+S1+I/KIKi

CYP2C19 [3] = target: T5, CYP2C19 (Homo sapiens, UniProt P33261); assay: Inhibition kinetics of CYP2C19 in HLMs (Lineweaver-Burk plots)
T5 construct: tissue PrimeTox M10000.201800; host or cells: pooled human liver microsomes (50 donors)
T5 sequence (P33261 whole entry): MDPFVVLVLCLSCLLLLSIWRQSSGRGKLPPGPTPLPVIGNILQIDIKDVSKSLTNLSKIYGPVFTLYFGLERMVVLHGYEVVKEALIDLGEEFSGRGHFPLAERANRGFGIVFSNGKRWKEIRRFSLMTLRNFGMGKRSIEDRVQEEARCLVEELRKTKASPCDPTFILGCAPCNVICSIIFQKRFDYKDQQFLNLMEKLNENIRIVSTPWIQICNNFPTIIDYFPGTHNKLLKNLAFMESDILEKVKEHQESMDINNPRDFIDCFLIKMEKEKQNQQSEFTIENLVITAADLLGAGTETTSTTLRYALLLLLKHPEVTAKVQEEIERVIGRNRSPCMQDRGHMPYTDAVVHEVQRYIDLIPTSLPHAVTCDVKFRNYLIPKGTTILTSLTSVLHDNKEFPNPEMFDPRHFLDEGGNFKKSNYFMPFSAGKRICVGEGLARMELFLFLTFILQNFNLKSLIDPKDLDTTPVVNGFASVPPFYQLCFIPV
From the text: as §4, §5

CYP2C19 [4] = target: T5, CYP2C19; assay: Assessment of time-dependent inhibition of CYP2C19 in HLMs; conditions: 10 μM ECH; incubation 0-30 min
Description: as §1

CYP2E1 [5] = target: T4, CYP2E1; assay: Assessment of time-dependent inhibition of CYP2E1 in HLMs; conditions: 20 μM ECH; incubation 0-30 min
Description: as §1

CYP2C19 [6] = target: T5, CYP2C19; assay: CYP2C19 inhibition in HLMs, S-mephenytoin 4-hydroxylation probe reaction; conditions: 100 μM ECH, p < 0.001 vs Control
Description: as §2
(§6) The quantification for the corresponding metabolites was performed using a validated single LC/MS/MS run at an Ultimate 3000 HPLC system and a TSQ Quantis™ triple quadrupole mass spectrometer equipped with a heated electrospray ionization (ESI) source (Thermo Fisher, USA). […]
(§7) The relative enzyme activity was observed by High-Performance Liquid Chromatography (HPLC)-Mass Spectrometry (MS). IC50 values were calculated by Graphpad Prism 7.

CYP2C9 = target: T6, CYP2C9 (Homo sapiens, UniProt P11712); assay: CYP2C9 inhibition in HLMs, diclofenac 4′-hydroxylation probe reaction; conditions: HLM; even in 100 μM concentrations
T6 construct: Phenotyping experiments were conducted by probe reactions of eight HLMs CYPs; tissue PrimeTox M10000.201800; host or cells: pooled human liver microsomes (50 donors)
T6 sequence (P11712 whole entry): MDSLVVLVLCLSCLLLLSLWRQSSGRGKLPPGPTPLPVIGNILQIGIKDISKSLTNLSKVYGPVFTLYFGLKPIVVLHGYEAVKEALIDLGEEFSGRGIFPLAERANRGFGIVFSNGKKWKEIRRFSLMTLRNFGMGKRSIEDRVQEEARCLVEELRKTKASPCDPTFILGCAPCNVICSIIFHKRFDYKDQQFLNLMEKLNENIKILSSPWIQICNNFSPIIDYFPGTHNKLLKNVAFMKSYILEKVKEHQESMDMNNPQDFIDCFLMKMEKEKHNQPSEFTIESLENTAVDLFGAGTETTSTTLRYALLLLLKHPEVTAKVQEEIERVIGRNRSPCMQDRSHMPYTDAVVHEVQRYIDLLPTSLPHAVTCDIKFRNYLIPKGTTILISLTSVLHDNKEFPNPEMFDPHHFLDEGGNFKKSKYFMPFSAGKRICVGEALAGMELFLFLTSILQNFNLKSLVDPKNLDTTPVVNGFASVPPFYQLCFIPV
Description: as §2, §3

CYP3A4 [7] = target: T1, CYP3A4; assay: CYP3A4 inhibition in HLMs, testosterone 6β-hydroxylation probe reaction; conditions: 100 μM ECH, p < 0.001 vs Control
Description: as §2, §6, §7

CYP2E1 [8] = target: T4, CYP2E1; assay: CYP2E1 inhibition in HLMs, chlorzoxazone 6-hydroxylation probe reaction; conditions: 100 μM ECH, p < 0.001 vs Control
Description: as §2, §6, §7

[9] = pre-incubation 0-30 min, ECH 0-50 μM, estimated from curve fitting of Kobs

T1 sequence (P08684 whole entry): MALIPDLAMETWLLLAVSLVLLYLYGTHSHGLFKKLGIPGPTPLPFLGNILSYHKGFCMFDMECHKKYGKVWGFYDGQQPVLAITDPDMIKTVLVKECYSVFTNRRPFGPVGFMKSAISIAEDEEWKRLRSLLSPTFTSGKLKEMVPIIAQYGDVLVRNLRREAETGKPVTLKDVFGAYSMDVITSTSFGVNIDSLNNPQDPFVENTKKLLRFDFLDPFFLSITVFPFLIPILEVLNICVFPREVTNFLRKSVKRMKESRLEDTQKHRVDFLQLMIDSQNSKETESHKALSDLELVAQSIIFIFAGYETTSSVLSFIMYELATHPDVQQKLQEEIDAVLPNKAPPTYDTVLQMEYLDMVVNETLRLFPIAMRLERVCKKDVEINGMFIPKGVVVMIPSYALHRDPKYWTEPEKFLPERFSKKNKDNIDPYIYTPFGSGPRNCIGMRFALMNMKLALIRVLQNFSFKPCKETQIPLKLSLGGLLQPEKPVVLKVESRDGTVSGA

In the case of Echinacoside, the “time dependence of CYP3A4 inhibition” value (CYP3A4 [1]; 50 μM ECH, incubation 0-30 min) is reported as “time-dependent”, the “KI (time-dependent inhibition of CYP3A4)” value (CYP3A4 [1]; [9]) is reported as 6.63 µM and the “Kinact (time-dependent inhibition of CYP3A4)” value (CYP3A4 [1]; [9]) is reported as 0.066 min^− 1. The “inhibition of CYP2D6” value (CYP2D6) was “no significant inhibition”, the “inhibition of CYP2A6” value (CYP2A6) was “no significant inhibition” and the “α value for CYP2E1” value (CYP2E1 [2]) was “not 1”. For the same substance, the “mode of inhibition of CYP2E1” value (CYP2E1 [2]; Lineweaver-Burk plots) was “mixed type”, the “mode of inhibition of CYP2C19” value (CYP2C19 [3]) was “competitive type” and the “time dependence of CYP2C19 inhibition” value (CYP2C19 [4]) was “time-independent”. For the same substance, the “time dependence of CYP2E1 inhibition” value (CYP2E1 [5]) was “time-independent”, the “effect on relative activity of CYP2C19” value (CYP2C19 [6]) was “significant decrease” and the “inhibition of CYP2C9” value (CYP2C9) was “no significant inhibition”. For the same substance, the “effect on relative activity of CYP3A4” value (CYP3A4 [7]) was “significant decrease” and the “effect on relative activity of CYP2E1” value (CYP2E1 [8]) was “significant decrease”.
